Results reported in patent publication US20240209016A1, “FLUORESCENT NUCLEOSIDE PHOSPHATES” (STEALTH LABELS BIOTECH AB, priority 2021, published 2024).

Experiments:
[1] = DPBS, room temperature; cited from earlier work
Huh-7 cells [2] = assay: Cellular incorporation into RNA (emission of extracted RNA); type: cell-based, human; details: 24 h exposure; for emission of RNA extracted from exposed cells (in-cellulo RNA labelling): excitation 350 nm (2CNqA) or 370 nm (pA)
Method: RNA Extraction: Cells were seeded in 12-well plates as described above. Treatment solutions were prepared by diluting compounds 7 and 17 to a concentration of 2.5 μM or 5 μM in CCM. Conditioned medium was removed from the cells and treatment solutions were added. For control cells CCM alone was added. Cells were incubated for 24 h at 37° C. and 5% CO2. For RNA extraction and purification, a QIAGEN RNeasy Mini Kit was used, following the manufacturer's protocol. Briefly, the cells were washed with DPBS, lysed, homogenized by 12 times passing it through a 20-gauge needle (0.9 mm outer diameter), and added to an equal volume of ethanol. The resulting solution was transferred to a RNeasy spin column and centrifuged. Then, binding buffer was added on top of the column, where after it was centrifuged again. The column-bound RNA was washed five times with washing buffer, with a centrifugation step between each addition. To elute the extracted RNA, 30 μL of the provided RNase-free water was applied to the column and centrifuged. This step was repeated twice to increase the yield of extracted RNA.
Three control samples were prepared to examine potential FBA-TP interferences with the extraction procedure, as well as non-covalent binding between the FBA-TP and RNA. 1) FBA-TP was added to the kit's lysate buffer to a concentration of 2.5 μM and treated in the same way starting from the homogenization step. 2) Unexposed cells were seeded and lysed as described above and FBA-TP was thereafter added directly to the lysate to make up a 2.5 μM final concentration. […] The concentration and purity of the RNA extracted from the unexposed cells were determined using a NanoDrop 2000 spectrophotometer (Thermo Scientific) and FBA-TP was added to reach a final concentration of 2.5 μM in the solution. […]
Absorption and Emission Readout of cellular RNA: Absorption spectra of extracted and purified RNA samples and controls were recorded on a Cary 4000 spectrometer (Agilent Technologies) between 200 nm and 600 nm. Emission spectra were measured on a SPEX Fluorolog 3 spectrofluorimeter (Jobin Yvon Horiba). […]

Huh-7 cells [3] = assay: Uptake kinetics monitored by flow cytometry; type: cell-based, human; details: 2.5 μM; for exposure time at which uptake reaches plateau / saturation: 5 min to 4 h exposure
Method: For flow cytometry experiments, cells were seeded in a 48-well plate as described above. For kinetics experiments of the uptake, solutions of 2.5 μM of compounds 7 or 17 in CCM were added. Control samples were CCM, containing an equal volume of DPBS instead of FBA-TP. All treatments were done in triplicate. The experiment was setup such that all samples could be harvested at the same time at the end of the experiment. The FBA-TP solutions where therefore added at different time points. At the end of the experiment, the cells were washed twice with DPBS, and thereafter harvested by addition of 0.25% trypsin-EDTA. The trypsin was neutralized by adding DPBS with 2% added FBS and samples were transferred to a 96 U-bottom well plate for high throughput readout.
Measurements were generally performed on a BD LSRFortessa flow cytometer with an BD High Throughput Sampler (HTS). The system was connected to the software BD FACSDiva. Samples were excited using a 405 nm laser and emission passed through a bandpass filter centred at 450 nm (±20 nm). Uptake kinetics experiments were repeated twice. For monophosphate compounds, a Luminex CellStream flow cytometer with a high throughput sampler (HTS) connected to the CellStream Acquisition software was used. Excitation wavelength was 405 nm, with the emission passing through a 456/51 nm bandpass filter.

Huh-7 cells [4] = assay: Uptake competition with ATP or adenosine; type: cell-based, human; details: 2.5 μM compound, 4 h, increasing ATP or adenosine
Method: Uptake of 2CNqATP and pATP was compared with natural adenosine triphosphate (ATP) or adenosine (both purchased from Sigma-Aldrich). The readout is based on the fluorescence of the compounds, detected in living cells by flow cytometry or in cell lysate using a microplate reader following co-administration with increasing concentrations of natural ATP or adenosine.
Cells were seeded in a 96-well plate. Treatment solutions with ATP or adenosine were prepared by stepwise dilution in CCM to reach the concentrations shown in FIG. 7. 2CNqATP or pATP were added at a concentration of 2.5 μM. The cells were incubated for 4 h at 37° C. and 5% CO2. Cell morphology was checked under a light microscope.
For flow cytometry, the treated cells were washed three times with DPBS and detached with 0.25% trypsin-EDTA, which was then neutralized with CCM. Samples were transferred to a 96 U-well plate for high throughput readout on a BD LSRFortessa flow cytometer. Samples were excited using a 405 nm laser and emission passed through a bandpass filter centred at 450 nm (±20 nm).
For lysate readout, cells were lysed in 5x passive lysis buffer (Promega) for 1 h rocking at room temperature (ca. 22° C.). Fluorescence was recorded on an Optima Blue Fluostar plate reader (BMG Labtech). 2CNqATP was excited at 355 nm (±20 nm) and emission was detected using bandpass filter centered at 460 nm (±12 nm). […]

Substance	ε260 [1]	emission of RNA extracted from exposed cells (in-cellulo RNA labelling) (Huh-7 cells [2])	lag phase of uptake (Huh-7 cells [3])	increase in cellular fluorescence over time (comparison) (Huh-7 cells [3]; 5 min to 4 h)	exposure time at which uptake reaches plateau / saturation (Huh-7 cells [3])	uptake competition with ATP and adenosine (Huh-7 cells [4])	emission maximum of RNA extracted from exposed cells (Huh-7 cells [2]; excitation at 350 nm)	exposure time at which fluorescence is significantly over the initial (t=0) level (Huh-7 cells [3])
((2R,3S,4R,5R)-5-(2,3,5,6-tetraazacyclopenta[de]tetracen-2(6H)-yl)-3,4-dihydroxytetrahydrofuran-2-yl)methyl hydrogen triphosphate [pATP]	22300^27 M^−1 cm^−1	on the same level as the controls	15 min	significantly slower	> 4 h	also competes with ATP and adenosine, but the effect is considerably weaker	–	–
((2R,3S,4R,5R)-5-(8-cyano-2,3,5,6-tetraazaaceanthrylen-2(6H)-yl)-3,4-dihydroxytetrahydrofuran-2-yl)methyl hydrogen triphosphate [2CNqATP]	14600^26 M^−1 cm^−1	significant emission peak	–	–	2 h	competes with both ATP and adenosine with a stronger competition effect for ATP at low concentrations	460 nm	5 min
